Test results as given in patent US9993494B2, “Compositions and methods for treating fibrotic disease” (eFFECTOR Therapeutics, Inc., priority 2014, dated 2018).

System: normal human lung fibroblasts
Test: Ribosomal profiling: translational efficiency in TGFβ-treated fibroblasts
Type: cell-based
Conditions: TGFβ-treated fibroblasts
Summary of the method: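 Cells lysed on ice after a cold PBS wash containing cycloheximide. Ribosome-protected fragments and total mRNA were prepared with the ARTseq kit and sequenced by RNA-Seq. Reads were trimmed, mapped to the human genome and counted uniquely over coding regions per gene, with low-count genes excluded before differential translational-efficiency analysis.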

CC(C=CC(=O)NO)=CC(C)C(=O)c1ccc(N(C)C)cc1 (stereo not drawn) [TSA, 7-[4-(dimethylamino)phenyl]-N-hydroxy-4,6-dimethyl-7-oxohepta-2,4-dienamide]
renormalizing the translational profile of NECAB3 (ENSG00000125967): − (− = <0.9) | renormalizing the translational profile of COX7C (ENSG00000127184): − (− = <0.9) | renormalizing the translational profile of LIF (ENSG00000128342): − (− = <0.9) | renormalizing the translational profile of MTUS1 (ENSG00000129422): − (− = <0.9) | renormalizing the translational profile of ARHGEF6 (ENSG00000129675): − (− = <0.9) | renormalizing the translational profile of RPL36 (ENSG00000130255): − (− = <0.9) | renormalizing the translational profile of GDF15 (ENSG00000130513): − (− = <0.9) | renormalizing the translational profile of ASS1 (ENSG00000130707): − (− = <0.9) | renormalizing the translational profile of EIF2S3 (ENSG00000130741): − (− = <0.9) | renormalizing the translational profile of RPL27 (ENSG00000131469): − (− = <0.9) | renormalizing the translational profile of MATN3 (ENSG00000132031): − (− = <0.9) | renormalizing the translational profile of PPARG (ENSG00000132170): + (+ = 0.9 to 1.5) | renormalizing the translational profile of KDM6B (ENSG00000132510): − (− = <0.9) | renormalizing the translational profile of RARRES3 (ENSG00000133321): − (− = <0.9) | renormalizing the translational profile of BIVM (ENSG00000134897): − (− = <0.9) | renormalizing the translational profile of ATP5G2 (ENSG00000135390): − (− = <0.9) | renormalizing the translational profile of KRT7 (ENSG00000135480): − (− = <0.9) | renormalizing the translational profile of HNRNPA1 (ENSG00000135486): − (− = <0.9) | renormalizing the translational profile of IL6 (ENSG00000136244): − (− = <0.9) | renormalizing the translational profile of RPL35 (ENSG00000136942): − (− = <0.9) | renormalizing the translational profile of NOV (ENSG00000136999): + (+ = 0.9 to 1.5) | renormalizing the translational profile of IER3 (ENSG00000137331): − (− = <0.9) | renormalizing the translational profile of DDX60 (ENSG00000137628): − (− = <0.9) | renormalizing the translational profile of RPLP1 (ENSG00000137818): − (− = <0.9) | renormalizing the translational profile of PAQR5 (ENSG00000137819): − (− = <0.9) | renormalizing the translational profile of AOX1 (ENSG00000138356): ++ (++ = 1.5 to 2.0) | renormalizing the translational profile of FGF5 (ENSG00000138675): − (− = <0.9) | renormalizing the translational profile of PDE5A (ENSG00000138735): − (− = <0.9) | renormalizing the translational profile of GAS2L3 (ENSG00000139354): + (+ = 0.9 to 1.5) | renormalizing the translational profile of DIAPH3 (ENSG00000139734): − (− = <0.9) | renormalizing the translational profile of MYO19 (ENSG00000141140): − (− = <0.9) | renormalizing the translational profile of RPL13A (ENSG00000142541): − (− = <0.9) | renormalizing the translational profile of RPL11 (ENSG00000142676): − (− = <0.9) | renormalizing the translational profile of ACTA1 (ENSG00000143632): − (− = <0.9) | renormalizing the translational profile of PLEKHA6 (ENSG00000143850): + (+ = 0.9 to 1.5) | renormalizing the translational profile of RPL32 (ENSG00000144713): − (− = <0.9) | renormalizing the translational profile of RPL37 (ENSG00000145592): − (− = <0.9) | renormalizing the translational profile of BTF3 (ENSG00000145741): − (− = <0.9) | renormalizing the translational profile of HIGD2A (ENSG00000146066): − (− = <0.9) | renormalizing the translational profile of CREB5 (ENSG00000146592): − (− = <0.9) | renormalizing the translational profile of DENND2A (ENSG00000146966): − (− = <0.9) | renormalizing the translational profile of RPL10 (ENSG00000147403): + (+ = 0.9 to 1.5) | renormalizing the translational profile of EIF3H (ENSG00000147677): − (− = <0.9) | renormalizing the translational profile of RPL7A (ENSG00000148303): − (− = <0.9) | renormalizing the translational profile of EIF3M (ENSG00000149100): − (− = <0.9) | renormalizing the translational profile of FAU (ENSG00000149806): − (− = <0.9) | renormalizing the translational profile of CCDC102B (ENSG00000150636): + (+ = 0.9 to 1.5) | renormalizing the translational profile of FRMD4A (ENSG00000151474): + (+ = 0.9 to 1.5) | renormalizing the translational profile of HOMER1 (ENSG00000152413): − (− = <0.9) | renormalizing the translational profile of PLEKHH2 (ENSG00000152527): − (− = <0.9) | renormalizing the translational profile of ANKH (ENSG00000154122): − (− = <0.9) | renormalizing the translational profile of ABCA6 (ENSG00000154262): − (− = <0.9) | renormalizing the translational profile of OBSCN (ENSG00000154358): +++ (+++ = >2.0) | renormalizing the translational profile of ADAMTS5 (ENSG00000154736): − (− = <0.9) | renormalizing the translational profile of OXA1L (ENSG00000155463): − (− = <0.9) | renormalizing the translational profile of C9orf85 (ENSG00000155621): − (− = <0.9) | renormalizing the translational profile of RPL30 (ENSG00000156482): − (− = <0.9) | renormalizing the translational profile of EEF1A1 (ENSG00000156508): + (+ = 0.9 to 1.5) | renormalizing the translational profile of NRG1 (ENSG00000157168): − (− = <0.9) | renormalizing the translational profile of ADAMTS4 (ENSG00000158859): − (− = <0.9) | renormalizing the translational profile of RPL8 (ENSG00000161016): − (− = <0.9) | renormalizing the translational profile of RPL26 (ENSG00000161970): − (− = <0.9) | renormalizing the translational profile of RPL29 (ENSG00000162244): − (− = <0.9) | renormalizing the translational profile of CAMK2N1 (ENSG00000162545): − (− = <0.9) | renormalizing the translational profile of IGFBP7 (ENSG00000163453): − (− = <0.9) | renormalizing the translational profile of RPL22L1 (ENSG00000163584): − (− = <0.9)
